Measured values as given in a melting point compilation (Tetko et al.; mined from patent text by program, amines drawn as free bases though some values may be those of a salt).

Row | melting point [°C] | Compound
1 | 158 to 161 | Cn1cc(CCN2CCC3(CC2)CNC(=O)O3)c2ccccc21
2 | 40 to 42 | CCNc1c(C(=O)OCC)c(C)nc(OCC)c1[N+](=O)[O-]
3 | 224 to 226 | NC(=O)NCc1ccc2c(c1)CN(C1CCC(=O)NC1=O)C2=O (stereo not drawn)
4 | 168 to 170 | N#Cc1nsc2ccc([N+](=O)[O-])cc12
5 | 45 to 46 | CC(C)(C)NC(=O)c1ncccc1CCc1cccc(Cl)c1
6 | 149 to 151 | CCC1c2ccc(F)n2-c2ccc(F)cc2N1S(=O)(=O)c1ccc(O)c(C)c1 (stereo not drawn)
7 | 279 to 280 | O=C(O)c1cc2cc(F)c(F)cc2[nH]1
8 | 150 to 151 | CCOC(=O)c1ccc(-c2ccc(-c3ccc(C(F)(F)F)cc3)n2C)cc1
9 | 209 to 211 | CC1(C)OC(=S)Nc2ccc(-c3ccc(F)c(F)c3)cc21
10 | 143 to 145 | COc1cc(-c2ccccc2)c(OCC(=O)O)c(-c2ccccc2)c1
11 | 160 to 174 | N#Cc1ccc(-c2cn(-c3ccc(I)cc3)c(SCC(O)CO)n2)cc1 (stereo not drawn)
12 | 184 to 185 | CN1C(=O)C(NC(=O)c2ccccc2)C(C)(C)SC1=S (stereo not drawn)
13 | 75 to 77 | CCOC(=O)C1(C(=O)OCC)COC2(CC(C)(C)N(C(C)=O)C(C)(C)C2)OC1
14 | 190 to 192 | Cc1cccc2c1nc(COc1ccc(Cl)cc1)n2CCC(Cc1ccccc1)C(=O)O (stereo not drawn)
15 | 144 to 146 | Clc1ccc2cc(CBr)c3ccsc3c2c1
16 | 79 to 81 | O=C(C=C(c1ccccc1Cl)n1cncn1)c1ccccc1
17 | 157 to 159 | CC(C)(CNc1ccnc2cc(Cl)ccc12)NCc1ccncc1
18 | 165 | CCOC(=O)C(CCc1ccccc1)NC1CSC(c2ccsc2)CN(CC(=O)O)C1=O (stereo not drawn)
19 | 105 to 107 | Cc1nccn1-c1cccc(-n2cnc3cc(-c4ccoc4)ccc32)c1
20 | 160 | O=C(c1ccccc1)c1cccc2c1CCC2C(=O)NO (stereo not drawn)
21 | 105 to 110 | O=C(O)CCNC(=O)CCNC(=O)N1CCC2(CCNCC2)CC1
22 | 246 to 247 | O=C(O)c1cc(-n2c3c(c(-c4ccccc4)c2-c2ccccc2)CCCC3)ccc1O
23 | 137 to 139 | Cc1nc(OC(C)C(=O)NC(C)(C#N)C(C)(C)C)c(Cl)c(C(F)(F)F)n1 (stereo not drawn)
24 | 133 to 135 | CCOC(=O)C1=C(C)NC(COC(C)=O)=C(C(=O)OCC)C1c1cccc([N+](=O)[O-])c1 (stereo not drawn)

Row | melting point [°C] | Compound
25 | 158 to 160 | Cc1nn(-c2cc(O)c(Cl)cc2F)c(C)c1C
26 | 178 to 182 | CSc1nc(Cl)c(-c2ccc(C)cc2)c(NS(=O)(=O)c2ccc(C(C)(C)C)cc2)n1
27 | 114 to 115 | COC(=O)c1ccccc1OCC(O)CNCCNC(=O)Cc1ccccc1 (stereo not drawn)
28 | 250 | CN(c1ccc(N)cc1)c1nc(=O)c2cccnc2s1
29 | 190 to 191 | CC(C)(C)OC(=O)CCc1cc(C#N)nc(-c2nc(=O)c3ccccc3s2)c1
30 | 50 | CC1(c2cc3ccccc3[nH]2)CCCCC1
31 | 118 | CCCCCCCNC(=O)N(C)c1cccc(-c2ccc(CCC(=O)O)cn2)c1
32 | 178 to 181 | CC(C)(C)OC(=O)NC1CNC(=O)C12CC2 (stereo not drawn)
33 | 98 to 100 | COc1c(Cl)cc(Cl)c(OC)c1C(=O)O
34 | 144 to 145 | Cc1nn(-c2ccc(Cl)cc2)c(C)c1C(=O)N[C@H](C)[C@](O)(Cn1cncn1)c1ccc(F)cc1F
35 | 179 to 184 | CC(C)N(c1nc(Cl)nc(N2C(C)(C)CC3(CC2(C)C)OCCO3)n1)C(C)C
36 | 92 to 104 | CNC(=O)CN1CCc2cc(Nc3ncc(Cl)c(N[C@@H]4CCCC[C@H]4NS(C)(=O)=O)n3)c(OC)cc2CC1
37 | 140 to 142 | COc1cccc(OC)c1C(=O)N1CC2CCCN2c2ccccc21 (stereo not drawn)
38 | 96 to 97.5 | O=C1OC(Cc2ccccc2)CN1c1cccc(F)c1 (stereo not drawn)
39 | 116 to 118 | O=C(Nc1ccc(-n2nc(C3CCCO3)cc2C(F)(F)F)cc1)c1ccncc1F (stereo not drawn)
40 | 132 to 134 | COc1ccc(N2CCN(Cc3n[nH]c4ccccc34)CC2)nc1
41 | 74.5 to 75.5 | CSC(SC)=C(C#N)C(=O)c1cc(C)ccc1C
42 | 58 to 62 | COC(=O)CCC(=O)c1ccc(-c2ccc(C(C)(C)C)cc2)cc1
43 | 123 to 124 | CCOC(=O)Cc1nc(-c2ccc(F)cc2)c(-c2ccc(S(C)(=O)=O)cc2)o1
44 | 120 to 122 | Cc1cccc(C)c1NC(=O)N=C1CCC(C)N1C (stereo not drawn)
45 | 126 to 127 | CCOC(=O)Cc1cccc2c(=O)cc(C3=CCCCC3)oc12
46 | > 330 | O=C(O)c1ccc(-c2ccnnc2)cc1
47 | 98.2 | CNc1cccc2c1OC1(CC1)C2=O
48 | 218 to 219 | O=C(O)c1cc(-c2ccc(OCc3ccccc3)cc2OCc2ccccc2)n[nH]1

Row | melting point [°C] | Compound
49 | 214 to 216 | N#Cc1ccc(CN2CCCNC2=C[N+](=O)[O-])cn1
50 | 128 to 130 | COc1ccccc1N1CCN(CCCCOc2ccc(-c3cn4ccsc4n3)cc2)CC1
51 | 140 to 142 | Cc1ccc(C(=O)NC#N)cc1
52 | 208 to 211 | CC(CC=CC=CCC(=O)O)C1CCC2C3CCC4CC(O)CCC4(C)C3CC(O)C12C (stereo not drawn)
53 | 165 to 167 | COc1ccc2c(O)c(C(=O)NCCO)nc(Cl)c2c1
54 | 176 to 178 | CC(C)(C)c1cc(C=C2SCN(CCN)C2=O)cc(C(C)(C)C)c1O
55 | 119 to 121 | CCCCc1ccc(NC(=O)c2ccccc2C(c2ccc(O)cc2)c2ccc(O)cc2)cc1
56 | 63 | C#CCn1ccc(CO)c1C(F)(F)F
57 | 106 to 108 | CC(CNc1ccc(Cl)cc1[N+](=O)[O-])OS(C)(=O)=O (stereo not drawn)
58 | 175 | O=c1n(-c2ccccc2)c(=O)n(SC(Cl)(Cl)Cl)n1SC(Cl)(Cl)Cl
59 | 192 to 194 | COc1cc2c(cc1OC)C1=C(C#N)SCCC(=O)N1CC2
60 | 84 to 88 | COC(=O)c1ccc(OCCNC(=O)C2Cc3ccccc3N2S(=O)(=O)c2ccc(-c3cccc(C(F)(F)F)c3)cc2)c(Cl)c1 (stereo not drawn)
61 | 72 to 73 | CCCCN(C)C(=O)CS(=O)CCCCCCOc1ccc(C2=C(c3ccccc3)CCCc3cc(O)ccc32)cc1 (stereo not drawn)
62 | 95 to 97 | COc1nncc(-c2cccc(C(F)(F)F)c2)n1
63 | 168 to 169 | CC(C)=CCN1N=C(c2ccc(F)cc2)c2cc(Cl)ccc2CS1(=O)=O
64 | 123 to 125 | CN(C=O)C1CCC(O)(c2ccc(Cl)c(Cl)c2)c2ccccc21 (stereo not drawn)
65 | 175 to 176 | O=C(O)Cc1csc(-c2ncccc2O)n1
66 | 97 to 100 | CC(=O)Nc1ccc(F)cc1SCC#N
67 | 160 to 163 | Cc1cc(C)c(/C=C2\C(=O)N(COC(=O)CCC(=O)O)c3ccccc32)[nH]1
68 | 97 to 100 | CCCCCCSCC(O)COc1cccc2oc(C(=O)O)cc(=O)c12 (stereo not drawn)
69 | 88 to 89 | CC(C)(C)C1=C(c2cc3cc(O[Si](C)(C)C(C)(C)C)ccc3s2)OCC1(C)C
70 | 121 to 123 | O=C(OCCc1noc(-c2ccc(CN3CCCCCC3)s2)n1)c1ccccc1

Row | Compound | melting point [°C]
71 | CCC12CCC3C4CCC(=O)C=C4CCC3C1CCC2O (stereo not drawn) | 147 to 149
72 | CN1C(=O)[C@H](NC(=O)/C=C/c2c(Cl)cccc2Cl)N=C(c2ccccc2)c2ccccc21 | 121 to 124
73 | O=C(NC1C2CC3CC(C2)CC1C3)c1cc(-c2ccc(Cl)cc2)n(Cc2ccc(Cl)cc2Cl)n1 (stereo not drawn) | 154
